Patent US20180207228A1, “PEPTIDE COMBINATIONS AND USES THEREOF FOR TREATING GRASS ALLERGY” (ALK-Abelló A/S, priority 2015, published 2018)
Where no end group is shown, it is not given here.

Legend:
Format in all cases: cell-based, human
[1] = tested on: release of IFN-γ upon T cell activation; test: Fluorospot assay, IFN-γ release (DK1-TCL01, US1-TCL01); settings: head prints TCL-02 DK1; 17 TCL-01 DK1 lines
Protocol: (§1) Grass allergic donors were recruited (cohort DK1 including 30 grass allergic individuals, DK2 including 24 grass allergic individuals and US1 including 15 grass allergic individuals). PBMCs were isolated from freshly drawn heparinized blood by gradient centrifugation on lymphoprep (Nycomed, Norway), washed twice and re-suspended in RPMI 1640 medium with HEPES and ultraglutamine (Cambrex, Belgium) supplemented with 5% v/v human AB-serum (Cambrex, Belgium), 100 units/ml penicillin, and 0.1 mg/ml streptomycin (Sigma, St Louis, USA) (referred to as 5% AB-medium). Aliquots of the isolated PBMCs were frozen and were thawed later to stimulate the T cell lines. Additionally either fresh or thawed PBMCs were used as antigen presenting cells (APCs) in the proliferation assay as described later. In some cases the PBMCs were freezed at this stage and thawed later on to continue the experiment as described in the following. The isolated PBMCs (fresh or thawed) were CD8 depleted by MACS magnetic depletion according to the manufacturer's instructions (Miltenyi Biotec, Bergisch Gladbach, Germany). On day 0 the CD8-depleted PBMCs (2×10^6/ml) were stimulated in 1 ml bulk cultures in AB medium in 24 well plates (Nunc, Denmark) with the mixture of natural allergens: nPhl p 1 (0.5 μg/ml), mix of nPhl p 2/nPhl p 3 (1.0 μg/ml), nPhl p 4 (0.5 μg/ml), nPhl p 5 (0.5 μg/ml) and nCyn d 1 (0.5 μg/ml). Amount of 65 U, 30 U, and 30 U recombinant IL-2 (Chiron, USA) were added per well at days 5, 6 and 7, respectively. On day 14 cells were harvested to obtain T cell line generation 01 (referred to as TCL01).
(§2) On day 14 the T cells of TCL01 were isolated, washed and counted. The isolated T cells of TCL01 generation were used to perform either ELISpot or Fluorospot assay. TCL01 were further re-stimulated as described in the next paragraph for use in T cell proliferation. The aliquot for use in T cell proliferation was re-stimulated on day 14 to carry out proliferation experiment at day 24.
(§3) In the Fluorospot assays, release of IL-5 and IFN-γ upon T cell activation (of donor derived lines DK1-TCL01, and US1-TCL01) with a peptide or a peptide-mix described herein was measured by Fluorospot assay kit (Mabtech AB) and procedures were followed as per manufacturer's instructions. Briefly anti-human IL-5 and anti-human IFN-γ coated 96 well plates were obtained and blocked with 10% AB serum in RPMI. The plates were washed thoroughly and the isolated T cells were plated and incubated with either single peptides (2 μg/ml) or peptide mixes (2 μg/ml), or allergens nPhl p1, nPhl p 2, nPhl p 3, nPhl p 4, nPhl p 5, Cyn d 1 at 2 μg/ml for 20 hrs/37° C./5% CO2. After the incubation time the cells were removed by emptying the plate. Detection antibodies 7-B6-1-FS-FITC (1:200) and 5A10-biotin (2 μg/ml) were diluted in PBS-0.1% BSA and were added to the plate and incubated for 2 hours/room temperature (RT). There-after the plates were washed and anti-FITC-green (1:200) and SA-Red (1:200) diluted in PBS±0.1% BSA were added and incubated for 1 hour/RT/dark. After the incubation period the plates were washed, emptied and fluorescence enhancer solution was added for 15 minutes/RT. Plates were emptied, fluorescence enhancer solution was firmly tapped out against a clean paper, soft plastic under drain was removed and the plates were left in the dark to dry. The counts were inspected in a fluorospot reader. Hit criteria for peptide were 20 SFCs/10^6 PBMCs, p≤0.05 and poisson 0.05 stimulated cells compared to background, and a stimulation index (SI)≥2.
(§4) The peptides were identified as hits if they fulfilled the criteria as mentioned below where stimulation index (SI) value of 2 or above, Poisson value=<0.05 and P value=<0.05, SFC>=20 (IL-5/IFN-g)/10^6 cells and CPM>=1000 (proliferation) SI can be defined as [[…]/medium control] in a Fluorospot assay and [counts per minute (cpm)/medium control] in a proliferation assay.

[2] = tested on: release of IL-5 upon T cell activation; test: Fluorospot assay, IL-5 release (DK1-TCL01, US1-TCL01); settings: head prints TCL-02 DK1; text: 25 TCL-01 DK1 lines
Protocol: as §1, §2, §3, §4

[3] = tested on: allergen specific T cells; test: T cell proliferation assay (72 h) on donor derived T cell lines (TCL02/TCL03); settings: for Proliferation % donor coverage (TCL-02 DK1): T cell lines TCL-02 DK1, 30 donors, hit criteria SI>=2, CPM>=1000; for Proliferation strength (TCL-02 DK1): T cell lines TCL-02 DK1, strength of response (average relative magnitude)
In short: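 Overlapping 20-mer and selected 15-mer grass allergen peptides were screened for proliferation using TCL02 (day 24) or TCL03 (day 34) lines. Lines came from grass-allergic donors' CD8-depleted PBMCs, primed with natural allergen mix and expanded with irradiated autologous or allogeneic APCs, PHA-P 0.5 μg/ml and rIL-2.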

Row | Compound | IFN-gamma % donor coverage (TCL-02 DK1) [1] [%] | IL-5-Fluorospotr % donor coverage (TCL-02 DK1) [2] [%] | Proliferation % donor coverage (TCL-02 DK1) [3] [%] | Proliferation strength (TCL-02 DK1) [3]
1 | CC[C@H](C)[C@H](NC(=O)[C@@H](NC(=O)[C@H](CCC(=O)O)NC(=O)[C@H](CC(=O)O)NC(=O)[C@H](Cc1ccccc1)NC(=O)[C@@H](NC(=O)[C@@H](N)CC(N)=O)C(C)C)C(C)C)C(=O)N1CCC[C@H]1C(=O)N[C@H](C(=O)N[C@@H](C)C(=O)N[C@@H](Cc1ccccc1)C(=O)N[C@H](C(=O)N[C@H](C(=O)NCC(=O)N[C@@H](CCCCN)C(=O)O)C(C)C)[C@@H](C)O)[C@@H](C)O [compound 127] | 0.00 | 0.00 | 10.34 | 2.80
2 | CC[C@H](C)[C@H](NC(=O)[C@@H](NC(=O)[C@H](CCCNC(=N)N)NC(=O)[C@H](CC(C)C)NC(=O)[C@H](C)NC(=O)[C@H](CCC(=O)O)NC(=O)[C@@H](NC(=O)[C@H](CC(C)C)NC(=O)[C@@H](NC(=O)[C@H](C)NC(=O)[C@@H](NC(=O)[C@H](Cc1ccc(O)cc1)NC(=O)[C@H](C)NC(=O)[C@@H](N)CC(=O)O)C(C)C)[C@@H](C)O)[C@@H](C)O)C(C)C)C(=O)N[C@@H](C)C(=O)O [compound 128] | 12.00 | 41.67 | 60.00 | 13.50
3 | CC[C@H](C)[C@H](NC(=O)[C@H](CCC(=O)O)NC(=O)[C@H](Cc1c[nH]c2ccccc12)NC(=O)[C@@H](NC(=O)CNC(=O)[C@@H](N)CC(=O)O)C(C)C)C(=O)N[C@@H](CCCCN)C(=O)N[C@@H](CO)C(=O)N[C@@H](CC(=O)O)C(=O)N[C@@H](CCCCN)C(=O)N1CCC[C@H]1C(=O)N[C@@H](CC(C)C)C(=O)N[C@@H](CCCCN)C(=O)NCC(=O)N1CCC[C@H]1C(=O)O [compound 130] | 4.00 | 12.50 | 10.34 | 1.80
4 | CC[C@H](C)[C@H](NC(=O)[C@@H](N)CC(=O)O)C(=O)N[C@@H](CC(N)=O)C(=O)N[C@H](C(=O)NCC(=O)N[C@@H](Cc1ccccc1)C(=O)N[C@@H](CCCCN)C(=O)N[C@@H](C)C(=O)N[C@@H](C)C(=O)N[C@H](C(=O)N[C@@H](C)C(=O)N[C@@H](C)C(=O)N[C@@H](C)C(=O)N[C@@H](C)C(=O)NCC(=O)O)C(C)C)C(C)C [compound 131] | 0.00 | 22.22 | 55.55 | 6.50
5 | CC(C)[C@H](NC(=O)[C@H](C)NC(=O)[C@H](C)NC(=O)[C@H](CCCCN)NC(=O)[C@@H](N)Cc1ccccc1)C(=O)N[C@@H](C)C(=O)N[C@@H](C)C(=O)N[C@@H](C)C(=O)N[C@@H](C)C(=O)NCC(=O)N[C@@H](C)C(=O)N1CCC[C@H]1C(=O)N1CCC[C@H]1C(=O)N[C@@H](C)C(=O)N[C@@H](CC(=O)O)C(=O)O [compound 133] | 0.00 | 21.74 | 31.03 | 4.70
6 | AAESSSKAALTSKLDAAYKL-OH [compound 78] | 0.00 | 0.00 | 16.67 | 3.00
7 | AAGVPPADKYRTFVATFGAA-OH [compound 75] | 0.00 | 0.00 | 10.00 | 1.10
8 | AEGLSGEPKGAAESSSKAAL-OH [compound 77] | 0.00 | 0.00 | 3.33 | 0.40
9 | AEPAGKATTEEQKLIEKINA-OH [compound 74] | 0.00 | 4.00 | 10.00 | 1.50
10 | AEVELRQHGSEEWEPLTKKG-OH [compound 43] | 0.00 | 4.00 | 3.33 | 0.70
11 | AFGAMAKKGDEQKLRSAGEL-OH [compound 22] | 15.00 | 4.00 | 26.67 | 2.10
12 | AGELELQFRRVKSKYPEGTK-OH [compound 7] | 4.00 | 28.00 | 40.00 | 8.10
13 | AGYTPAAPAGAEPAGKATTE-OH [compound 61] | 0.00 | 16.00 | 26.67 | 3.40
14 | AIGDKPGPNITATYGSKWLE-OH [compound 89] | 0.00 | 0.00 | 6.67 | 1.10
15 | AMSEAQKAAKPAAAATATAT-OH [compound 86] | 0.00 | 0.00 | 10.00 | 1.40
16 | ASGYKDVDKPPFDGMTASGN-OH [compound 93] | 0.00 | 0.00 | 16.67 | 2.40
17 | AVKPAAEEVKVIPAGELQVI-OH [compound 81] | 0.00 | 0.00 | 20.00 | 2.60
